{"source": "paper PMC12735969", "about": "“Regulation of NAD^+ Homeostasis by SsNrtR in Streptococcus Sobrinus: A Critical Determinant of Its Cariogenic Potential” (Pathogens, 2025)", "molecular_target": "T1, SsNrtR (Streptococcus sobrinus, UniProt A0ABM6W328)", "T1 construct": "gene DK182_01300; full-length, hexahistidine tag, pET28b-nrtR, E. coli BL21(DE3), Ni-NTA and Superdex 200; about 28 kDa; dimer and oligomers", "assay": "EMSA, release from pnuC/pncB promoter DNA", "type": "binding", "details": "ADPR 0-1.0 mM; 200 bp pnuC/pncB promoter probe; allosteric anti-repressor", "data": [{"smiles": "Nc1ncnc2c1ncn2[C@@H]1O[C@H](COP(=O)(O)OP(=O)(O)OC[C@H]2OC(O)[C@H](O)[C@@H]2O)[C@@H](O)[C@H]1O", "note": "(stereo partly shown) [ADP-ribose]", "values": [{"measurement": "EMSA, release from pnuC/pncB promoter DNA", "result": "the interaction between SsNrtR and the pnuC/pncB DNA probe was disrupted by ADPR"}]}]}
